Measured values reported in US9468680B2, “Differential effects of drugs on transport in a multi-layer 3D spheroid model” (Brown University, priority 2011, dated 2016).
Counter-ions that a name gives are not always drawn.

How the values were obtained:
gap junctions = target: T1, gap junctions (Homo sapiens, UniProt P17302); assay: transport of calcein from outer shell to core of KGN spheroids (compartmentalization analysis); type: cell-based
T1 construct: endogenous in cells; host or cells: KGN human granulosa cell line, self-assembled 3D spheroids
T1 sequence (P17302 2-382 limits assumed): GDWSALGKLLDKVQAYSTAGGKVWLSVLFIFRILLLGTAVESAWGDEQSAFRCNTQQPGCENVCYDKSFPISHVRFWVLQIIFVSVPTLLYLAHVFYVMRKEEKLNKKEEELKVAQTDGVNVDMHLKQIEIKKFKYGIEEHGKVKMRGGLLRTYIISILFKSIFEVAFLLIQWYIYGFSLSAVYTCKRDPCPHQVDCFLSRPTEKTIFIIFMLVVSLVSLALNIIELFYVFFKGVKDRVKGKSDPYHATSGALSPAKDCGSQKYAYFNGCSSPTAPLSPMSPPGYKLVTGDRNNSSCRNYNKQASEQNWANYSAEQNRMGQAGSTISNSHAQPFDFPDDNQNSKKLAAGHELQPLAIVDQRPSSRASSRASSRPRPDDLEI
Protocol: (§1) KGN cells, a human granulosa cell line, were grown in DMEM^29. OVCAR-3 and SK-OV-3 cells were grown in Roswell Park Memorial Institute medium (RPMI; Invitrogen). Both media were supplemented with 10% fetal bovine serum (FBS) (Thermo Fisher Scientific, Waltham, Mass.) and 1% penicillin/streptomycin and grown at 37° C. and 10% CO2. Cells were trypsinized using 0.05% trypsin and resuspended to the desired cell concentration. Spheroids that were pre-stained were formed from cells incubated with 5 μM CellTracker™ Red CMPTX, CellTracker™ Green CMFDA, or CellTracker™ Blue CMAC (Invitrogen) in serum-free DMEM for 1 hour prior to trypsinization. 75 μl of the cell suspension was pipetted into the seeding chamber of each gel. Cells were allowed to settle for 20 minutes and 4 mL of medium was added. Cells self-assembled for 24 hours to form spheroids before experimentation.
(§2) Quantitative image analysis was performed using a custom MATLAB (Mathworks, Natick, Mass.) program. Briefly, fifty evenly spaced radii were drawn across each spheroid and fluorescence at each pixel was averaged. […] Total spheroid fluorescence was determined by the integration of the fluorescent profiles (Equation 2). To compare data across experiments, we normalized the spheroids to the fluorescence per depth of single cells at the final time point.
(§3) To measure uptake of calcein-AM and transport of calcein, medium was removed from the hydrogels containing self-assembled KGN spheroids (24 hours), and replaced with serum-free DMEM containing 1 μM calcein-AM (Invitrogen). […] Images were taken once per hour for 11 hours, at 37° C. and 10% CO2.
(§4) Hydrogels were equilibrated with a drug-containing medium overnight at 37° C. and 10% CO2, and spheroids were self-assembled for 24 hours in their respective drug concentration. […] A working solution of carbenoxolone (Sigma) was prepared by diluting appropriate volumes of a 10 mM stock solution into serum-free medium. Spheroids were assembled for 24 hours and then pretreated with carbenoxolone for 5 hours prior to adding calcein-AM for the uptake assay. Medium containing drug and calcein-AM were used for the uptake assay.
To deconvolve this fluorescent signal into an average 3D radial profile, the spheroid was estimated as a series of concentric spheres (multi-layers). Each layer (shell) was 14 μm in width and contained a homogenous concentration of fluorescent calcein (FIGS. 3C and D). The total fluorescence f(i) at X, layer is sum of the fluorescence contribution from all shells at Xi. Mathematically, the total fluorescence can be written as
[formula] Here, fnorm(j) is the fluorescence/height in the i^th shell and h(i, j) is the height at point (Xi, Yj). Note h(i, i)=0 lies at the centerline of the spheroid. […] Equation (4) results in the following iterative formula: […]
The inner core was taken as about≧14 μm from the center in the smallest dimension to ensure the core contained whole cells.

Pgp [1] = target: T2, Pgp (Homo sapiens, UniProt P08183); assay: cell-based
T2 sequence (P08183 whole entry): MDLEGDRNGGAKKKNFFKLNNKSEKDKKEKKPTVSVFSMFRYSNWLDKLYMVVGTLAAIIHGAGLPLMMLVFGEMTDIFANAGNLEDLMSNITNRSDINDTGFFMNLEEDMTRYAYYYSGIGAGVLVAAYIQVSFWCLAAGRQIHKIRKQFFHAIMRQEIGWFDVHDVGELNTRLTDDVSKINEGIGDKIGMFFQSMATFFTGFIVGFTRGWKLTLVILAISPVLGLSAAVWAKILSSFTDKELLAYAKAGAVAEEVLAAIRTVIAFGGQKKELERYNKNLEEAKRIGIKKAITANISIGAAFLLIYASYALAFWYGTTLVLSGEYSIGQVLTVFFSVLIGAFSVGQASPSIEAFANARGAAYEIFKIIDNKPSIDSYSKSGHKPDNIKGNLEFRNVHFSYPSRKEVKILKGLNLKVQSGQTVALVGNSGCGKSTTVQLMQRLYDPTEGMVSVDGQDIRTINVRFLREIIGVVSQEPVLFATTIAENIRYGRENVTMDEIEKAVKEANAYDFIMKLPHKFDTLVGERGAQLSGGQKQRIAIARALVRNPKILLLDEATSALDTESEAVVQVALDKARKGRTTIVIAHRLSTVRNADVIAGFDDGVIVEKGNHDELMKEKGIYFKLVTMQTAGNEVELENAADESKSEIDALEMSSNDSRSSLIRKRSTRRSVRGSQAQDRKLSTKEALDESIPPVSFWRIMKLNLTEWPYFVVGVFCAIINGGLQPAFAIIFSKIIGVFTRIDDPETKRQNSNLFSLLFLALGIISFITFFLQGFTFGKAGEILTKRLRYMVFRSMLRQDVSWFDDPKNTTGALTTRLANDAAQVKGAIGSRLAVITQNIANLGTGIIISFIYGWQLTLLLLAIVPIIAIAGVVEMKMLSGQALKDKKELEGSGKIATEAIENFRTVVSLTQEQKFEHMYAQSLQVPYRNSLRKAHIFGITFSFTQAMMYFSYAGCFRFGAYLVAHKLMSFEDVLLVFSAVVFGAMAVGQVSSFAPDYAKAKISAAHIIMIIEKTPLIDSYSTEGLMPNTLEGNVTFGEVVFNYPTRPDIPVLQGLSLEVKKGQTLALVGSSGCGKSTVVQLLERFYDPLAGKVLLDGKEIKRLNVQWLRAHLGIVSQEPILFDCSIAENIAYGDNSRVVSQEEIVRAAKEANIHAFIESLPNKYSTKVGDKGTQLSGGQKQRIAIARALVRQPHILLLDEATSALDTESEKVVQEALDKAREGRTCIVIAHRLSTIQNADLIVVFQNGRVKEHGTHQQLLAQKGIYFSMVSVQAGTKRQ
Protocol: as §1, §2, §3, §4

KGN spheroids = assay: loss of calcein from calcein-loaded KGN spheroids; type: cell-based, human; settings: after 135 minutes calcein-AM loading
Protocol: To measure uptake of calcein-AM and transport of calcein, medium was removed from the hydrogels containing self-assembled KGN spheroids (24 hours), and replaced with serum-free DMEM containing 1 μM calcein-AM (Invitrogen). Fluorescent imaging of calcein began immediately and images were taken at regular intervals over 135 minutes at 37° C. and 10% CO2. To measure loss or loss of calcein, hydrogels containing KGN spheroids that had been incubated with calcein-AM for 135 minutes, thus loading the spheroids with calcein, were rinsed with DMEM and incubated in DMEM without calcein-AM. Images were taken once per hour for 11 hours, at 37° C. and 10% CO2.

Pgp [2] = target: T2, Pgp; settings: 2D, calcein-AM assay, concentrations ranging from 1-100 μM; cited from earlier work
[3] = 1 μM calcein-AM, 75 minutes, n=15
[4] = 5 μM drug, 1 μM calcein-AM, 110 minutes
[5] = 5 μM drug, normalized data, 110 minutes

percentage of calcein in the core compared to controls (gap junctions; [3]) | percentage of calcein in the outer shell compared to controls (gap junctions; [3]) | IC50 (gap junctions; 1 μM calcein-AM, 75 minutes, read-out: half-maximal response, inhibition of gap junctions (fraction of calcein compartmentalized to outer shell)) [µM] | calcein in the core, fold less than controls (gap junctions; CBX 100 μM, 1 μM calcein-AM, 135 minutes) [fold] | percentage of calcein in the core (gap junctions; CBX 100 μM, 135 minutes, n=18, untreated 15±3%) [%] | percentage of calcein in the outer shell (gap junctions; CBX 100 μM, 135 minutes, n=18, untreated 27±3%) [%] | IC50 (Pgp [1]) [µM] | calcein in the outer shell, fold higher than controls (Pgp [1]; human, 135 min, 100 μM) [fold] | Structure (SMILES) | effect on loss of total spheroid calcein (KGN spheroids) | initial rate of calcein loss from the outer shell (KGN spheroids; drug-free medium, control 17±3% per hour, p<0.05) [% per hour] | calcein concentration in the core of the spheroid compared to untreated (gap junctions; [4]) | percentage of calcein in the core compared to control (gap junctions; [5]) | percentage of calcein in the outer most shell compared to control (gap junctions; [5]) | calcein in the outer shell compared to untreated controls (Pgp [1]; [4]) | total concentration of calcein in the spheroids compared to untreated controls (Pgp [1]; [4]) | percent maximum inhibition (Pgp [2]) [%]
reduced | increased | 9.4 | 8 | 0.5±2 | 52±4 | 81 | 3 | CC1(C)[C@@H](OC(=O)CCC(=O)O)CC[C@]2(C)[C@H]3C(=O)C=C4[C@@H]5C[C@@](C)(C(=O)O)CC[C@]5(C)CC[C@@]4(C)[C@]3(C)CC[C@@H]12 [carbenoxolone] | no effect | 13±1 |  |  |  |  |  | 
 |  |  |  |  |  |  |  | CN(C)C(=O)C(CCN1CCC(O)(c2ccc(Cl)cc2)CC1)(c1ccccc1)c1ccccc1 [loperamide, loperamide hydrochloride] |  |  | did not increase | decreased | increased | significantly increased | significantly increased | 76.3
